These results are taken from article PMC4443670, “The C-terminal region of the motor protein MCAK controls its structure and activity through a conformational switch” (eLife, 2015).

“Also recorded” adds a separate entry of the source. Ends that are not written are not given here.

Test [1] has as its target T1, MCAK motor domain (Homo sapiens, UniProt Q99661).
T1 construct: His-MCAK (183–583, M) and His-MCAK (1–583, NM) were subcloned in pET3aTr vector; made in house; host or cells: E. coli BL21(DE3) Codon plus
Put plainly: Analytical size-exclusion chromatography (motor-CT complex formation). It is filed as binding. The settings on record: Superdex 75 or Superose 6 10/300 GL; Coomassie-stained gel of fractions. The text has this:
Full-length MCAK is a dimer in solution ([Maney et al., 2001]). Therefore, we sought to test whether the CT domain interacts with one or two motor domains. To define the stoichiometry of this interaction, we subjected the complex to analytical size-exclusion chromatography. The motor domain alone behaves as a monomer and eluted with an apparent size of ∼45 kDa. […] Using SDS-PAGE analysis, we confirmed that the shift to a larger complex was due to the interaction of the motor domain with the CT domain (Figure 1C, bottom). […] The predicted masses for complexes of one and two CT domains bound to two motor domains are ∼94.2 and 97.7 kDa, respectively. […] Since the CT domain is unlikely to dimerize alone (Figure 1B), we conclude that the MCAK CT domain induces the dimerization of the motor domains cooperatively.
Protein expression was induced by addition of 0.5 mM IPTG to BL21(DE3) Codon plus cells transformed with respective constructs at OD600 of 0.7–0.8 for 16 hr at 18°C. Cells were lysed by sonication in lysis buffer (50 mM Hepes, pH 7.4, 200 mM NaCl, 1 mM MgCl2, 1 mM PMSF, 1 mg/ml DNaseI, 2 mg/ml lysozyme, 10 mM Imidazole) and clarified at 20,000 rpm for 1 hr at 4°C. His-tagged and GST-tagged proteins were subsequently purified using Ni-NTA–agarose beads and glutathione-sepharose beads, respectively (GE Healthcare Life Sciences, UK)) according to the manufacturer's guidelines. MCAK constructs containing the motor domain were eluted with elution buffer (50 mM Hepes, pH 7.4, 200 mM NaCl, 1 mM MgCl2, 1 mM ATP, and 300 mM imidazole). Cleavage of the GST tag was performed using the GST-3C protease overnight at 4°C. […] Protein concentrations were determined with a combination of Bradford protein assays and densitometry of Coomassie-stained gels relative to a BSA standard. […]

Test [2] has as its system MCAK motor domain (Cys287). Description: Covalent (disulphide) attachment of the CT domain to the motor domain. It is filed as binding, human. The settings on record: for formation of covalent complex with motor: oxidizing conditions (without DTT), 100 mM HEPES pH 7.4, 150 mM NaCl, 1 hr at 4°C. As for the experimental part:
The GST-CTE712C and CTE712C domains were cross-linked to the motor domain by incubating them with the motor domain in a buffer containing 100 mM HEPES, pH 7.4, 150 mM NaCl but lacking DTT for 1 hr at 4°C. As a negative control the motor domain and the CTE712C domain were incubated in the identical buffer, supplemented with 5 mM DTT.

The test system of another test is GST-CT domain. Description: Resin-based binding assay, CT domain self-interaction (CT domain to GST-CT). Also on record: species or system human. Particulars: GST-CT on glutathione agarose; GST-cleaved CT domain. An excerpt: Kinesin-1 is regulated through an auto-inhibitory mechanism whereby one C-terminal tail binds at the interface of the two motors, such that it creates a second point of attachment in addition to the coiled coil region. This limits the head movement of one kinesin with respect to the other ([Stock et al., 1999]; [Hackney and Stock, 2000]; [Kaan et al., 2011]). We sought to test whether the C-terminal tail domain of MCAK, which has been proposed to regulate MCAK activity ([Moore and Wordeman, 2004]), was sufficient to interact with the motor domain. To do this, we expressed the N-terminal and motor region (residues 1–583, termed NM) or the motor region of MCAK along with the neck linker region (residues 181–583, termed M) as His-tagged proteins, and the C-terminal MCAK tail (residues 700–725, termed CT domain) as a GST fusion protein ([Moore and Wordeman, 2004]; [Hertzer et al., 2006]) (Figure 1A). […] We cannot however exclude a very tight interaction between two CT domains. […]
Protein expression was induced by addition of 0.5 mM IPTG to BL21(DE3) Codon plus cells transformed with respective constructs at OD600 of 0.7–0.8 for 16 hr at 18°C. […] Protein concentrations were determined with a combination of Bradford protein assays and densitometry of Coomassie-stained gels relative to a BSA standard. […]

The target in test [3] is T1, MCAK motor domain. Put plainly: X-ray crystal structure of motor domain with CT peptide (PDB 4UBF). The protocol: 1 mM MCAK motor domain (PDB:2HEH, Addgene, Cambridge MA, USA) was incubated with the CT peptide 709[…]720 (China peptides Co, Ltd, China) in a ratio of 1:2 for 1 hr at 4°C before setting up crystallization trials. Elongated rectangular crystals appeared by vapor diffusion after two days in sitting drops using 24% wt/vol PEG 1500 and 20% vol/vol Glycerol as a precipitant. Crystals were grown in MRC 2 Well Crystallization Plate (Hampton Research, Aliso Viejo, CA, USA) at 19°C. Crystals were cryoprotected in a solution containing 28% wt/vol PEG 1500 and 30% vol/vol Glycerol and flash-frozen in dry liquid nitrogen.
Diffraction data were recorded at Diamond Light Source on beamline ID24 at 100 K. Data were processed using XDS package ([Kabsch, 2010]) and SCALA operated through the CCP4 suite GUI ([Collaborative Computational Project, Number 4, 1994]). The structure of the MCAK motor-tail complex was solved by molecular replacement using the program MOLREP. The MCAK motor domain structure (PDB code: 2HEH) was used as a search model. Structure refinement was performed using Refmac5 and Phenix ([Adams et al., 2010]). Figures were prepared using PyMOL ([Delano, 2002]).

The test system of test [4] is taxol-stabilized microtubules. Put plainly: Microtubule cosedimentation assay, untreated microtubules. It is filed as binding. The settings on record: for effect of free CT domain on MCAKS715E binding to microtubules: 100 nM full-length MCAKS715E, 2 μM taxol-stabilized microtubules, increasing free CT or CTS715E, repeated three times; for detection of CT domain in microtubule-bound pellet / supernatant: western blot, 50 nM motor domain, with and without DTT. The protocol: Full-length MCAK complex was diluted in S buffer (50 mM NaCl, 20 mM Hepes pH 7.0) to 50 nM, in absence of nucleotide to prevent MCAK-dependent microtubule depolymerisation. To assemble an MCAK motor-CT domain complex, 50 nM of the motor domain and 100 nM of the CT domain were used. Microtubule binding assays were performed as described ([Cheeseman et al., 2006]) using equal volumes of taxol-stabilized microtubules in BRB80 and MCAK in S buffer. MCAK was quantified using anti-MCAK antibody against the C terminus of MCAK (709[…]720), generated by GL Biochem (Shangai) Ltd (China) or anti-His antibody to probe for the motor domain alone (GE Healthcare Lifesciences, UK). The data from at least three independent experiments were fitted to a modified Hill equation to determine the apparent Kd.

The subject of test [5] is taxol-stabilized microtubules. Description: Microtubule depolymerisation assay. It is filed as biochemical. As for the experimental part:
Microtubule depolymerization assays were performed essentially as described previously ([Hertzer et al., 2006]). MCAK was diluted to 100 nM in S-buffer containing 1 mM DTT and 2 mM Mg-ATP. For depolymerization assays of the motor domain in presence of the CT domain after GST cleavage and removal, 50 nM of motor domain and 100 nM of the CT domain were used. The microtubule depolymerization assay was initiated by the addition of 2 μM taxol-stabilized microtubules to a reaction buffer containing MCAK. Reactions were incubated at room temperature with increasing times and followed by centrifugation to separate microtubules from free tubulin. The data are represented as mean ± SD from three independent experiments.

T1 sequence (Q99661 183-583): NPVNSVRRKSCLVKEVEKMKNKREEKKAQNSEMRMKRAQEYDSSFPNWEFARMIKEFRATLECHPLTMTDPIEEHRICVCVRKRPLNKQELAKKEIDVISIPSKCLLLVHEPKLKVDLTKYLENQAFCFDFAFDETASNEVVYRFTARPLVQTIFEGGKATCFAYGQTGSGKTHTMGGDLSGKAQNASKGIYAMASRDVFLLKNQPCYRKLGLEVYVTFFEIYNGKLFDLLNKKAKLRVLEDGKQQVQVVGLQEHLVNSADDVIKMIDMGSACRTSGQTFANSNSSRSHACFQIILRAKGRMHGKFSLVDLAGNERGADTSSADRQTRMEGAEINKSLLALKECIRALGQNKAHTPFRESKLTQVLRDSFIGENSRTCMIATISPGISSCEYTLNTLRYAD

On to “GST-CTE712C: cleavable GST fusion of CTE712C domain (VIKALRLAMQLECQASRQISSKKRPQ; also: GST fusion partner not in chain)”, for which the “binding to / co-migration with motor domain by gel filtration” value (“binding to / co-migration” for short) with MCAK motor domain [1] was “eluted as a single peak, earlier than the peak for the motor alone”. The “efficiency of disulphide bridge formation with motor domain” value in test [2] (absence of DTT, Coomassie-stained gel) is roughly 50%. Further, the “formation of covalent complex with motor” value in test [2] is given as “formed a covalent complex”.

With “GPLGSIKALRLAMQLEEQASRQISSKKRPQ-OH [CT domain]”, in the test on GST-CT domain, the “interaction of CT domain with itself” value is recorded as “unable to interact with itself through dimerization”. The “RMSD of overall structure of MCAK on CT domain binding” value on MCAK motor domain [3] (3 Å crystal structure) is 0.863 Å. Moreover, at MCAK motor domain [1], the “binding to / co-migration” value was “bound the motor domain independently of the GST; also recorded: the elution peak shifted to an earlier fraction, suggesting dimerization of the MCAK motor”. In test [4], the “effect of free CT domain on MCAKS715E binding to microtubules” value was “decreased the affinity of MCAKS715E for microtubules” and the “detection of CT domain in microtubule-bound pellet / supernatant” value is “did not detect”.

In the case of “CTS715E: CT domain point mutant S715E (VIKALRLAMQLEEQAERQISSKKRPQ; left off: GST, end not stated, cleaved)”, in the test with MCAK motor domain [1], the “binding to / co-migration” value is reported as “did not co-migrate”. Further, the “effect of free CT domain on MCAKS715E binding to microtubules” value in test [4] was “did not interfere with MCAKS715E binding to microtubules”.

In the case of “CTE712C: CT domain with Glu712 mutated to cysteine, forms disulphide bridge with motor Cys287 (VIKALRLAMQLECQASRQISSKKRPQ; also: Cys712 forms disulfide with motor Cys287; UniProt Q99661 700-725, looked up, fragment E712C)”, in test [5] (50 nM motor domain, 100 nM CTE712C domain, 2 μM taxol-stabilized microtubules, no DTT, apparent activity), the “microtubule depolymerase activity of motor with CTE712C domain, absence of DTT” value is given as “displayed reduced depolymerase activity”. Besides, in test [5] (50 nM motor domain, 100 nM CTE712C domain, 2 μM taxol-stabilized microtubules, with DTT), the “microtubule depolymerase activity of motor with CTE712C domain, presence of DTT” value was “the depolymerase activity was similar to that of the wild type MCAK motor alone”. For the same substance, the “specific depolymerase activity of covalent MCAK motor-CTE712C complex” value in test [5] (calculated by subtracting activity of motor alone (~50% of population)) is on record as “strongly inhibits the depolymerase activity of MCAK”. In addition, the “binding to MCAK motor, presence of DTT” value in test [2] (5 mM DTT) is listed as “did not bind the MCAK motor”. Also, the “non-covalently bound MCAK fraction” value in test [2] (motor-CTE712C domain complex, absence of DTT, Figure 6—figure supplement 1F) was 45–50%. For the same substance, the “formation of covalent complex with motor” value in test [2] is given as “formed a covalent complex”. Further, in test [4] (50 nM motor domain + CTE712C domain, oxidizing conditions (no DTT), absence of nucleotide), the “reduction of fraction of MCAK motor bound to microtubules” value was roughly 50%. Further, the “detection of CT domain in microtubule-bound pellet / supernatant” value in test [4] was “did not detect”.

On to “709QLEEQASRQISS720 [chemically synthesized peptide corresponding to the CT domain]”, for which the “binding mode in crystal structure” value at MCAK motor domain [3] (3 Å, peptide 709QLEEQASRQISS720) is “a single CT domain binds to both motor domains, close to their neck linker regions”.
